The values that follow come from patent US9434724B2, “Quinuclidines for modulating alpha 7 activity” (priority 2014, dated 2016).

The structures appear in SMILES notation.

The target of data set [1] is rat brain nicotinic receptor (α7 NAChR) (Rattus norvegicus (Rat), UniProt Q05941). It is filed as binding.
Data set [2] in a line: Metabolic stability assay in human liver microsomes (HLM). As to conditions: human, microsomes, 1 μM. It is filed as in vitro ADME. Summed up:
(§1)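 In Protocol 1, compound was 1 μM final with NADPH at 37 °C, sampled at 0–45 min. In Protocol 2, 1.5 μM compound with 0.75 mg/mL microsomes (pre-NADPH mix) in 0.1 M potassium phosphate, 1 mM EDTA, pH 7.4 was pre-incubated 10 min, then NADPH started the reaction. Both: LC-MS/MS % remaining versus time 0, half-life from single-phase exponential fit.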

Data set [3] is described as follows: Metabolic stability assay in rat liver microsomes (RLM). It is filed as in vitro ADME. As to conditions: rat, microsomes, 1 μM. The method, boiled down:
as §1

A short description of a further data set: Human plasma stability. As to conditions: human, plasma; for % Remaining @ 2 h: 5 μM. It is filed as in vitro ADME. The method, boiled down: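 Compound remaining was quantified by LC-MS/MS as peak-area ratio to internal standard relative to time 0, with half-lives from single-exponential fits. Protocol 1 incubated 1 μM in heparinized human plasma (pH 7.4, 37° C) to 120 min; protocol 2 used 5 μM, pH 7.4–8.0, 37° C, n=2, to 120 min.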

The next data set deals with CYP3A4 (Homo sapiens (Human), UniProt P08684). As to conditions: microsomes, 5 min.
The target of a further data set is CYP2C19 (Homo sapiens (Human), UniProt P33261). As to conditions: microsomes, 45 min.
The next data set has as its target CYP1A2 (Homo sapiens (Human), UniProt P05177). Put plainly: Cytochrome P450 inhibition in human liver microsomes, CYP1A2. As to conditions: read-out: 1A2 IC50, Protocol 1.
In a further data set the target is CYP2D6 (Homo sapiens (Human), UniProt P10635). Put plainly: Cytochrome P450 inhibition in human liver microsomes, CYP2D6. As to conditions: read-out: 2D6 IC50, Protocol 1.
CYP2D6, sequence (P10635 whole entry): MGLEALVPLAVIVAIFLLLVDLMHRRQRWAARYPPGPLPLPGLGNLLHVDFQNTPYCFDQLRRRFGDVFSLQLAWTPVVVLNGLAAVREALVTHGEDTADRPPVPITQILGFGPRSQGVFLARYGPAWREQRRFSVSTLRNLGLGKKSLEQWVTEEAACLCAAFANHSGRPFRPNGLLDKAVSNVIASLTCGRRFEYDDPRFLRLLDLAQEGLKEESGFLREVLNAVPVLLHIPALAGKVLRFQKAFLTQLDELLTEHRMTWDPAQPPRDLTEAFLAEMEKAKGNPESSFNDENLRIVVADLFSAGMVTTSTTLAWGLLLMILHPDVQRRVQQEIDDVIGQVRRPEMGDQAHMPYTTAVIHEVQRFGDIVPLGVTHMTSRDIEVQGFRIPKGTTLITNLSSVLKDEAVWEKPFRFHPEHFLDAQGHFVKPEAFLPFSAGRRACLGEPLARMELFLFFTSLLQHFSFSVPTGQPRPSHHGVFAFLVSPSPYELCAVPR

CYP1A2, sequence (P05177 whole entry): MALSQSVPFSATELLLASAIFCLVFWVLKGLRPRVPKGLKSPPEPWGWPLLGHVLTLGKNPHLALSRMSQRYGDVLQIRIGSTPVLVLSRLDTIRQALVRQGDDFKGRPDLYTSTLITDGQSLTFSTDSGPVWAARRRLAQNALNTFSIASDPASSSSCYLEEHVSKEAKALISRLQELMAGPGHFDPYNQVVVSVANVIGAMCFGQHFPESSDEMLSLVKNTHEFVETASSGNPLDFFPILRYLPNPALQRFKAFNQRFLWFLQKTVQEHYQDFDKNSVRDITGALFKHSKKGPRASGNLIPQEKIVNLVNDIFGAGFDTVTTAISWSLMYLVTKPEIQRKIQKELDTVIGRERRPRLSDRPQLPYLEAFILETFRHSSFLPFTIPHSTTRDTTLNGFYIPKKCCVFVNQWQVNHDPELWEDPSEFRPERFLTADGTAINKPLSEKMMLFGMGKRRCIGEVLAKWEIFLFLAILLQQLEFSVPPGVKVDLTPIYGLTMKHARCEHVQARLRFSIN
CYP2C19, sequence (P33261 whole entry): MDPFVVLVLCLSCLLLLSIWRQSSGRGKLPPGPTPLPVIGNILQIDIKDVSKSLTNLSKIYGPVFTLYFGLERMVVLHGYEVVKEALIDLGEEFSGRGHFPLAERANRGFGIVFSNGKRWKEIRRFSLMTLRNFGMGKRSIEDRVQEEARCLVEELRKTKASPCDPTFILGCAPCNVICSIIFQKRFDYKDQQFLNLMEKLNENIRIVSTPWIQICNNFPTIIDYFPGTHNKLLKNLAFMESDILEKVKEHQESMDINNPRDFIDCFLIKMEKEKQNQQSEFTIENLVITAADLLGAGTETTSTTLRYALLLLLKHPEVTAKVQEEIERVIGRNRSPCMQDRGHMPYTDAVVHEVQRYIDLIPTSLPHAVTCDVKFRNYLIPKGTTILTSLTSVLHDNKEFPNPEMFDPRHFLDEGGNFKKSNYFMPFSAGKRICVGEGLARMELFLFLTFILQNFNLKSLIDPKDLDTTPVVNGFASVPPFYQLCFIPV
CYP3A4, sequence (P08684 whole entry): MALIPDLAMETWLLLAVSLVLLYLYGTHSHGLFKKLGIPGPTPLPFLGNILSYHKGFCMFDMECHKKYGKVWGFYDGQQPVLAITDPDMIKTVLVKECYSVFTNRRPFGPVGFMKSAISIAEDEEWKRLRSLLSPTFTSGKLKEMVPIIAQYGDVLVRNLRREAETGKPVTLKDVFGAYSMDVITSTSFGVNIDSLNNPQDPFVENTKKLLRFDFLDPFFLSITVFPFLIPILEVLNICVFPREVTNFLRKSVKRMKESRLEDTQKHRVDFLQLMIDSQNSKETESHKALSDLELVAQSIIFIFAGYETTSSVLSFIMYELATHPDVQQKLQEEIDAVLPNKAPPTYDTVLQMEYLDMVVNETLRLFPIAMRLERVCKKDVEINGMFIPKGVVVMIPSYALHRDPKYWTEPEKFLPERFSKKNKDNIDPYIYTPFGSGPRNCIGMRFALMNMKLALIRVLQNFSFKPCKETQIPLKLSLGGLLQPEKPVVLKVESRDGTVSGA
rat brain nicotinic receptor (α7 NAChR), sequence (Q05941 23-502 limits assumed): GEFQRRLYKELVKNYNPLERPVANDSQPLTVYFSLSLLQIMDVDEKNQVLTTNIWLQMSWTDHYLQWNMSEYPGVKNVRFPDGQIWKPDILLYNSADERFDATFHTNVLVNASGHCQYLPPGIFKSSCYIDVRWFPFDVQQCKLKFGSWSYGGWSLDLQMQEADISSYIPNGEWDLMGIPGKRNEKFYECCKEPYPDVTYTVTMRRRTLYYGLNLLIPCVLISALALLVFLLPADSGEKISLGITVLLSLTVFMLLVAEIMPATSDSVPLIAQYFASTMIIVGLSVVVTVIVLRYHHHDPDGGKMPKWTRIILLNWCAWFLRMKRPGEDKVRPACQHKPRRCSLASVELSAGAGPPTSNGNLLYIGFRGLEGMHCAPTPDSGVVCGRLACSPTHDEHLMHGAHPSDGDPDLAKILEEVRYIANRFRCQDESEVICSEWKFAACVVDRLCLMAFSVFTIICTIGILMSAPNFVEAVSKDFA

With `Cc1cc2c(C(=O)OCC34CCN(CC3)CC4)c[nH]c2cc1O` [Compound 55, quinuclidin-4-ylmethyl 6-hydroxy-5-methyl-1H-indole-3-carboxylate], the IC50 in data set [1] was 52.3 nM; at CYP3A4, over 10 µM; against CYP2C19 it was over 10 µM; at CYP1A2 it was over 10 µM; on CYP2D6, over 10 µM. In data set [1], the Ki stood at 44.8 nM. This molecule gave an HLM in data set [2] of 10.3473 mL/min/kg. This molecule also yielded an RLM in data set [3] of 45.1417 mL/min/kg. The “% Remaining @ 2 h” value in the data set “Human plasma stability” came to 40.33%.
As for `Cc1cc(C#N)cc2[nH]cc(C(=O)OCC34CCN(CC3)CC4)c12` [Compound 60, quinuclidin-4-ylmethyl 6-cyano-4-methyl-1H-indole-3-carboxylate], the IC50 in data set [1] is 474 nM; against CYP3A4 it was over 10 µM; against CYP2C19, over 10 µM; on CYP1A2 it was over 10 µM; on CYP2D6, over 10 µM. The affinity in data set [1], expressed as Ki, was 407 nM. This molecule also yielded an HLM in data set [2] of 15.0953 mL/min/kg. The RLM in data set [3] was found to be 78.5875 mL/min/kg. The “% Remaining @ 2 h” value in the data set “Human plasma stability” came to 89.46%.
As to `COc1cc2[nH]cc(C(=O)OCC34CCN(CC3)CC4)c2cc1C` [Compound 56, quinuclidin-4-ylmethyl 6-methoxy-5-methyl-1H-indole-3-carboxylate], the IC50 in data set [1] is 644 nM; against CYP3A4 it was over 10 µM; against CYP2C19 it was over 10 µM; on CYP1A2, over 10 µM. Also, the Ki in data set [1] was determined as 552 nM. The HLM in data set [2] amounted to 4.868 mL/min/kg. In data set [3], this molecule came in with an RLM of 1196.24 mL/min/kg. Besides, in “Human plasma stability”, the “% Remaining @ 2 h” value came out at 77.82%.
As to `COc1ccc2[nH]cc(C(=O)OCC34CCN(CC3)CC4)c2c1Br` [Compound 47, quinuclidin-4-ylmethyl 4-bromo-5-methoxy-1H-indole-3-carboxylate], the IC50 in data set [1] was 33.3 nM; against CYP3A4, over 10 µM; against CYP2C19, over 10 µM; at CYP1A2, over 10 µM. This molecule displayed a Ki in data set [1] of 28.5 nM. The molecule also showed an HLM in data set [2] of 13.5926 mL/min/kg. This molecule came in with an RLM in data set [3] of 541.358 mL/min/kg. In addition, the “% Remaining @ 2 h” value in “Human plasma stability” came to 72.43%.
As to `COc1cc(Cl)c2c(C(=O)OCC34CCN(CC3)CC4)c[nH]c2c1` [Compound 38, quinuclidin-4-ylmethyl 4-chloro-6-methoxy-1H-indole-3-carboxylate], the IC50 in data set [1] is 396 nM; against CYP3A4, over 10 µM; at CYP2C19 it was over 10 µM; at CYP1A2 it was over 10 µM. This molecule also registered a Ki in data set [1] of 341 nM. This molecule also returned an HLM in data set [2] of 8.15 mL/min/kg. Moreover, in data set [3], the RLM is given as 76.79 mL/min/kg. Also, the T1/2 entry in the data set “Human plasma stability” is “∞”. Also, the “% Remaining @ 2 h” value in the data set “Human plasma stability” is listed as 96.52%.
With `Cc1cc(C)c2c(C(=O)OCC34CCN(CC3)CC4)c[nH]c2c1` [Compound 54, quinuclidin-4-ylmethyl 4,6-dimethyl-1H-indole-3-carboxylate], the IC50 in data set [1] was 400 nM; on CYP3A4 it was over 10 µM; on CYP2C19, over 10 µM; on CYP1A2, over 10 µM. The molecule also came in with a Ki in data set [1] of 343 nM. This molecule displayed an HLM in data set [2] of 5.294 mL/min/kg. Moreover, in data set [3], the RLM amounted to 175.357 mL/min/kg. Besides, the “% Remaining @ 2 h” value in “Human plasma stability” came out at 89.87%.
